pEC50, pKi: −log10 of the molar value. Like-named read-outs stand apart in the source and are kept apart here.
What was measured:
[1] = target: isolated recombinant JAK2 kinase domain (Homo sapiens (Human), UniProt O60674); experiment: JAK2 enzyme assay (Caliper LabChip, peptide phosphorylation); type: biochemical; conditions: 25 μM ATP
[2] = target: isolated recombinant JAK1 kinase domain (Homo sapiens (Human), UniProt P23458); experiment: JAK1 enzyme assay (Caliper LabChip, peptide phosphorylation); type: biochemical; conditions: isolated recombinant JAK1 kinase domain, 25 μM ATP
isolated recombinant JAK1 kinase domain, sequence (P23458 875-1153): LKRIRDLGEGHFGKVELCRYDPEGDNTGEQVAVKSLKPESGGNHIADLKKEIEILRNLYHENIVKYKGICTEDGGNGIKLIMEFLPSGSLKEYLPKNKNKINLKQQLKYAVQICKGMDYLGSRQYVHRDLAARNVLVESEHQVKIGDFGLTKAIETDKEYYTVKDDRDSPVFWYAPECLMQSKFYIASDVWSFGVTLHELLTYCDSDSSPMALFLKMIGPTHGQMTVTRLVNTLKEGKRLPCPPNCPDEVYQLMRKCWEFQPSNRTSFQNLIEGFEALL

[3] = tested on: JAK1-dependent STAT6 phosphorylation downstream of IL-13 stimulation in TF-1 human erythroleukemia cells; experiment: JAK1 pathway assay in TF-1 cells (IL-13-pSTAT6, MSD); type: cell-based; conditions: read-out: IL13-pSTAT6 EC50_TF-1
How it was run: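 TF-1 cells are starved of GM-CSF overnight and run in serum-free medium, while BEAS-2B cells stay in complete growth medium. Inhibition of STAT6 phosphorylation is measured by MSD.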

isolated recombinant JAK2 kinase domain, sequence (O60674 849-1124): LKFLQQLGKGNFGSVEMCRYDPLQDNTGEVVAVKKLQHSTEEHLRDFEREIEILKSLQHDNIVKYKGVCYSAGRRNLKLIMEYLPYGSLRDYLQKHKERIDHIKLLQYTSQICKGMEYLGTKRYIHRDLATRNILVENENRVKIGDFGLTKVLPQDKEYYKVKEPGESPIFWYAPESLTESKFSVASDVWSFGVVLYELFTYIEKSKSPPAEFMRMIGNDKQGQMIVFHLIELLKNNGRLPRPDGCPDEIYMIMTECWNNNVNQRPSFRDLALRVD

Row | pKi [1] | pKi [2] | pEC50 ([3]; TF-1 cells) | pEC50 ([3]; Homo sapiens, TF-1, TF-1 cells) | SMILES
1 | 9.02 | 9.30 | – | 7.95 | CN1CC[C@@H]2CN(C(=O)Cn3cc(NC(=O)c4cnn5cccnc45)c(-c4cc(Cl)ccc4OC(F)F)n3)C[C@@H]2C1 [Example 49, N-[1-[2-[(3aS,7aS)-5-methyl-3,3a,4,6,7,7a-hexahydro-1H-pyrrolo[3,4-c]pyridin-2-yl]-2-oxo-ethyl]-3-[5-chloro-2-(difluoromethoxy)phenyl]pyrazol-4-yl]pyrazolo[1,5-a]pyrimidine-3-carboxamide]
2 | 9.13 | 9.00 | – | 7.49 | CC(C)(O)CCN1C[C@@H]2CN(C(=O)Cn3cc(NC(=O)c4cnn5cccnc45)c(-c4cc(Cl)ccc4OC(F)F)n3)C[C@@H]2C1 [Example 50, N-[1-[2-[(3aR,6aS)-2-(3-hydroxy-3-methyl-butyl)-1,3,3a,4,6,6a-hexahydropyrrolo[3,4-c]pyrrol-5-yl]-2-oxo-ethyl]-3-[5-chloro-2-(difluoromethoxy)phenyl]pyrazol-4-yl]pyrazolo[1,5-a]pyrimidine-3-carboxamide]
3 | 8.97 | 8.96 | – | 7.11 | O=C(Nc1cn(CC(=O)N2C[C@H]3CN(CCCOC(=O)N4CCOCC4)C[C@H]3C2)nc1-c1cc(Cl)ccc1OC(F)F)c1cnn2cccnc12 [Example 51, 3-[(3aR,6aS)-5-[2-[3-[5-chloro-2-(difluoromethoxy)phenyl]-4-(pyrazolo[1,5-a]pyrimidine-3-carbonylamino)pyrazol-1-yl]acetyl]-1,3,3a,4,6,6a-hexahydropyrrolo[3,4-c]pyrrol-2-yl]propyl morpholine-4-carboxylate]
4 | 8.91 | 9.21 | – | 7.96 | CN1CC[C@H]2CN(C(=O)Cn3cc(NC(=O)c4cnn5cccnc45)c(-c4cc(Cl)ccc4OC(F)F)n3)C[C@H]2C1 [Example 53, N-[1-[2-[(3aR,7aR)-5-methyl-3,3a,4,6,7,7a-hexahydro-1H-pyrrolo[3,4-c]pyridin-2-yl]-2-oxo-ethyl]-3-[5-chloro-2-(difluoromethoxy)phenyl]pyrazol-4-yl]pyrazolo[1,5-a]pyrimidine-3-carboxamide]

The next lines start with the compound.

Row | SMILES | pKi [1] | pKi [2] | pEC50 ([3]; TF-1 cells) | pEC50 ([3]; Homo sapiens, TF-1, TF-1 cells)
5 | CN1C[C@@H]2CN(C(=O)Cn3cc(NC(=O)c4cnn5cccnc45)c(-c4cc(Cl)ccc4OC(F)F)n3)C[C@]2(c2ccccc2)C1 [Example 44, N-[1-[2-[(3aR,6aR)-2-methyl-3a-phenyl-3,4,6,6a-tetrahydro-1H-pyrrolo[3,4-c]pyrrol-5-yl]-2-oxo-ethyl]-3-[5-chloro-2-(difluoromethoxy)phenyl]pyrazol-4-yl]pyrazolo[1,5-a]pyrimidine-3-carboxamide] | 9.66 | 9.27 | 8.17 | –
6 | O=C(Nc1cn(CC(=O)N2C[C@H]3CN(CC4(O)CCCCC4)C[C@H]3C2)nc1-c1cc(Cl)ccc1OC(F)F)c1cnn2cccnc12 [Example 46, N-[1-[2-[(3aS,6aR)-2-[(1-hydroxycyclohexyl)methyl]-1,3,3a,4,6,6a-hexahydropyrrolo[3,4-c]pyrrol-5-yl]-2-oxo-ethyl]-3-[5-chloro-2-(difluoromethoxy)phenyl]pyrazol-4-yl]pyrazolo[1,5-a]pyrimidine-3-carboxamide] | 9.15 | 9.24 | – | 8.09
7 | N#CC1(CN2C[C@@H]3CN(C(=O)Cn4cc(NC(=O)c5cnn6cccnc56)c(-c5cc(Cl)ccc5OC(F)F)n4)C[C@@H]3C2)CCCCC1 [Example 47, N-[1-[2-[(3aS,6aR)-2-[(1-cyanocyclohexyl)methyl]-1,3,3a,4,6,6a-hexahydropyrrolo[3,4-c]pyrrol-5-yl]-2-oxo-ethyl]-3-[5-chloro-2-(difluoromethoxy)phenyl]pyrazol-4-yl]pyrazolo[1,5-a]pyrimidine-3-carboxamide] | 9.27 | 9.48 | – | 7.96

Reference: US9346815B2, “5-chloro-2-difluoromethoxyphenyl pyrazolopyrimidine compounds, compositions and methods of use thereof” (Genentech, Inc., priority 2014, dated 2016)
